Numbered stars: 1 amine (or outer) side, 2 acyl side, 3 side chain; on linkers, the order of the positions; unused ones are H or OH. Side chains are listed from the residue outwards. Peptide text beside a SMILES is read from it. * marks the point of attachment. γGlu = O=C(O)[C@H](CCC(=O)[*:2])N[*:1]; C14 diacid = O=C(O)CCCCCCCCCCCCC(=O)*; AEEA = NCCOCCOCC(=O)O
Assay: Estimate of oral bioavailability: gut injection in rat (caprate), exposure in plasma
Type: in vivo
Conditions: injection in jejunum, 1000 uM in 55 mg/ml sodium caprate, plasma concentration (pM) at 30 min divided by dosing solution concentration (μM), mean n=4
Method: The GLP-1 derivatives were tested in a concentration of 1000 uM in a solution of 55 mg/ml sodium caprate.
Male Sprague Dawley rats with a body weight upon arrival of approximately 240 g were obtained from Taconic (Denmark) and assigned to the different treatments by simple randomisation, 4 rats per group.
The GLP-1 derivatives were administered in the jejunum either in the proximal part (10 cm distal for the duodenum) or in the mid-intestine (50 cm proximal for the cecum). A PE50-catheter, 10 cm long was inserted into the jejunum, forwarded at least 1.5 cm into the jejunum, and secured before dosing by ligature around the gut and the catheter with 3/0 suture distal to tip to prevent leak or catheter displacement. Catheter was placed without syringe and needle and 2 ml saline was administered into abdomen before closing the incision with wound clips.
100 μl of the respective GLP-1 derivative was injected into the jejunal lumen through the catheter with a 1 ml syringe. Subsequently, 200 μl of air was pushed into the jejunal lumen with another syringe to “flush” the catheter. This syringe was leaved connected to the catheter to prevent flow back into the catheter.
Blood samples (200 ul) were collected at desired intervals (usually at times 0, 10, 30, 60, 120 and 240 min) into EDTA tubes from the tail vein and centrifuged 5 minutes, 10000G, at 4° C. within 20 minutes. […] 12, p. 240-247. The donor beads were coated with streptavidin, while acceptor beads were conjugated with a monoclonal antibody recognising a mid-/C-terminal epitope of the peptide. Another monoclonal antibody, specific for the N-terminus, was biotinylated. The three reactants were combined with the analyte and formed a two-sited immuno-complex. Illumination of the complex released singlet oxygen atoms from the donor beads, which were channeled into the acceptor beads and triggered chemiluminescence which was measured in an Envision plate reader. The amount of light was proportional to the concentration of the compound.
After the blood sampling the rats were sacrificed under anaesthesia and the abdomen was opened to verify correct catheter placement.
The mean (n=4) plasma concentrations (pmol/l) were determined as a function of time.

Dose-corrected exposure at 30 min | SMILES
121 | CC[C@H](C)[C@H](NC(=O)[C@H](Cc1ccccc1)NC(=O)[C@H](CCCCNC(=O)CC[C@H](NC(=O)COCCOCCNC(=O)COCCOCCNC(=O)CCCCCCCCCCCCC(=O)O)C(=O)O)NC(=O)[C@H](CCCNC(=N)N)NC(=O)[C@H](C)NC(=O)[C@H](C)NC(=O)[C@H](CCC(N)=O)NC(=O)[C@H](CCCCNC(=O)CC[C@H](NC(=O)COCCOCCNC(=O)COCCOCCNC(=O)CCCCCCCCCCCCC(=O)O)C(=O)O)NC(=O)[C@H](CCC(=O)O)NC(=O)[C@H](CC(C)C)NC(=O)[C@H](Cc1ccc(O)cc1)NC(=O)[C@H](CO)NC(=O)[C@H](CO)NC(=O)[C@@H](NC(=O)[C@H](CC(=O)O)NC(=O)[C@H](CO)NC(=O)[C@@H](NC(=O)[C@H](Cc1ccccc1)NC(=O)[C@@H](NC(=O)CNC(=O)[C@H](CCC(=O)O)NC(=O)[C@H](C)NC(=O)[C@@H](N)Cc1c[nH]cn1)[C@@H](C)O)[C@@H](C)O)C(C)C)C(=O)N[C@@H](C)C(=O)N[C@@H](Cc1c[nH]cn1)C(=O)N[C@@H](CC(C)C)C(=O)N[C@H](C(=O)NCC(=O)O)C(C)C [Example 14, N^ε22-[(4S)-4-carboxy-4-[[2-[2-[2-[[2-[2-[2-(13-carboxytridecanoylamino)ethoxy]ethoxy]acetyl]amino]ethoxy]ethoxy]acetyl]amino]butanoyl], N^ε27-[(4S)-4-carboxy-4-[[2-[2-[2-[[2-[2-[2-(13-carboxytridecanoylamino)ethoxy]ethoxy]acetyl]amino]ethoxy]ethoxy]acetyl]amino]butanoyl]-[Lys^22,Arg^26,Lys^27,His^31,Gly^34]-GLP-1-(7-34)-peptide] (H-HAEGTFTSDVSSYLEK([γGlu-AEEA-AEEA-C14 diacid])QAARK([γGlu-AEEA-AEEA-C14 diacid])FIAHLVG-OH; N-terminus and C-terminus assumed)
275 | CC[C@H](C)[C@H](NC(=O)[C@H](Cc1ccccc1)NC(=O)[C@H](CCCCNC(=O)CC[C@H](NC(=O)COCCOCCNC(=O)COCCOCCNC(=O)CCCCCCCCCCCCC(=O)O)C(=O)O)NC(=O)[C@H](CCCNC(=N)N)NC(=O)[C@H](C)NC(=O)[C@H](CCCCNC(=O)CC[C@H](NC(=O)COCCOCCNC(=O)COCCOCCNC(=O)CCCCCCCCCCCCC(=O)O)C(=O)O)NC(=O)[C@H](CCC(N)=O)NC(=O)[C@H](CCC(=O)O)NC(=O)[C@H](CCC(=O)O)NC(=O)[C@H](CC(C)C)NC(=O)[C@H](Cc1ccc(O)cc1)NC(=O)[C@H](CO)NC(=O)[C@H](CO)NC(=O)[C@@H](NC(=O)[C@H](CC(=O)O)NC(=O)[C@H](CO)NC(=O)[C@@H](NC(=O)[C@H](Cc1ccccc1)NC(=O)[C@@H](NC(=O)CNC(=O)[C@H](CCC(=O)O)NC(=O)[C@H](C)NC(=O)[C@@H](N)Cc1c[nH]cn1)[C@@H](C)O)[C@@H](C)O)C(C)C)C(=O)N[C@@H](C)C(=O)N[C@@H](Cc1c[nH]cn1)C(=O)N[C@@H](CC(C)C)C(=O)N[C@H](C(=O)NCC(=O)O)C(C)C [Example 22, N^ε24-[(4S)-4-carboxy-4-[[2-[2-[2-[[2-[2-[2-(13-carboxytridecanoylamino)ethoxy]ethoxy]acetyl]amino]ethoxy]ethoxy]acetyl]amino]butanoyl], N^ε27-[(4S)-4-carboxy-4-[[2-[2-[2-[[2-[2-[2-(13-carboxytridecanoylamino)ethoxy]ethoxy]acetyl]amino]ethoxy]ethoxy]acetyl]amino]butanoyl]-[Glu^22,Lys^24,Arg^26,Lys^27,His^31,Gly^34]-GLP-1-(7-34)-peptide] (H-HAEGTFTSDVSSYLEEQK([γGlu-AEEA-AEEA-C14 diacid])ARK([γGlu-AEEA-AEEA-C14 diacid])FIAHLVG-OH)
66 | CC[C@H](C)[C@H](NC(=O)[C@H](Cc1ccccc1)NC(=O)[C@H](CCCCNC(=O)COCCOCCNC(=O)COCCOCCNC(=O)CC[C@H](NC(=O)CCCCCCCCCCCCC(=O)O)C(=O)O)NC(=O)[C@H](CCCNC(=N)N)NC(=O)[C@@H](NC(=O)[C@H](C)NC(=O)[C@H](CCC(N)=O)NC(=O)[C@H](CCCCNC(=O)COCCOCCNC(=O)COCCOCCNC(=O)CC[C@H](NC(=O)CCCCCCCCCCCCC(=O)O)C(=O)O)NC(=O)[C@H](CCC(=O)O)NC(=O)[C@H](CC(C)C)NC(=O)[C@H](Cc1ccc(O)cc1)NC(=O)[C@H](CO)NC(=O)[C@H](CO)NC(=O)[C@@H](NC(=O)[C@H](CC(=O)O)NC(=O)[C@H](CO)NC(=O)[C@@H](NC(=O)[C@H](Cc1ccccc1)NC(=O)[C@@H](NC(=O)CNC(=O)[C@H](CCC(=O)O)NC(=O)[C@H](C)NC(=O)[C@@H](N)Cc1c[nH]cn1)[C@@H](C)O)[C@@H](C)O)C(C)C)C(C)C)C(=O)N[C@@H](CCC(=O)O)C(=O)N[C@@H](Cc1c[nH]c2ccccc12)C(=O)N[C@@H](CC(C)C)C(=O)N[C@H](C(=O)N[C@@H](CCC(N)=O)C(=O)NCC(=O)N[C@@H](CCCNC(=N)N)C(=O)NCC(=O)O)C(C)C [Example 11, N^ε22-[2-[2-[2-[[2-[2-[2-[[(4S)-4-carboxy-4-(13-carboxytridecanoylamino)butanoyl]amino]ethoxy]ethoxy]acetyl]amino]ethoxy]ethoxy]acetyl], N^ε27-[2-[2-[2-[[2-[2-[2-[[(4S)-4-carboxy-4-(13-carboxytridecanoylamino)butanoyl]amino]ethoxy]ethoxy]acetyl]amino]ethoxy]ethoxy]acetyl]-[Lys^22,Val^25,Arg^26,Lys^27,Glu^30,Gln^34]-GLP-1-(7-37)-peptide] (H-HAEGTFTSDVSSYLEK([AEEA-AEEA-γGlu-C14 diacid])QAVRK([AEEA-AEEA-γGlu-C14 diacid])FIEWLVQGRG-OH; N-terminus and C-terminus assumed)

Reference: patent publication US11117947B2, “Double-acylated GLP-1 derivatives” (Novo Nordisk A/S, priority 2011, dated 2021)
